Laboratory results: patent publication US9963452B2, “Methods, compounds, and compositions for inhibition of ROS” (AUGUSTA PHARMACEUTICALS INC., priority 2013, dated 2018)

How the values were obtained:
Format in all cases: cell-based
[1] = tested on: LN18 glioblastoma cell line; assay: In-vitro cell survival assay (Alamar blue), LN18; details: LN18, one day after compound addition
Experimental: (§1) Five tumor-derived cell lines were treated with the ROS inhibitor compounds and cell survival was monitored to determine the cancer prohibition effects of the compounds. The cell lines included HeLa, a cervical cancer cell line, and four glioblastoma cell lines U138, U87, LN18, and U118. The basic protocol for the in-vitro cell survival assay is the same for all five cell lines. In particular, the cells were seeded in 96-well plates at 2-5×10^3 cells/well (cell line dependent) in culture medium. The cells were grown for 2 days before the compounds were dissolved in DMSO and added to final concentrations of 100 uM, 10 uM, or 1 uM (DMSO final concentration 0.5%). The cell culture was then assayed one day after the addition of the compounds. The assay used Alamar blue as a redox-sensitive dye that interrogates mitochondrial fitness of cells, and these assays provided a readout for cell proliferation and viability. The raw values were normalized to an average of several vehicle control wells and are presented as percent decrease in proliferation/viability, which is converted to half maximal effective concentration (EC50) values.

[2] = tested on: U87 glioblastoma cell line; assay: In-vitro cell survival assay (Alamar blue), U87; details: U87, one day after compound addition
Experimental: as §1

[3] = tested on: U138 glioblastoma cell line; assay: In-vitro cell survival assay (Alamar blue), U138; details: U138, one day after compound addition
Experimental: as §1

[4] = tested on: U118 glioblastoma cell line; assay: In-vitro cell survival assay (Alamar blue), U118; details: U118, one day after compound addition
Experimental: as §1

[5] = tested on: HeLa cervical cancer cell line; assay: In-vitro cell survival assay (Alamar blue), HeLa; details: one day after compound addition
Experimental: as §1

Compound	EC50 ([1]; Homo sapiens, LN-18, 24 h)	EC50 ([2]; 24 h)	EC50 ([3]; 24 h)	EC50 ([4]; 24 h)	EC50 ([5]; Homo sapiens, 24 h)	EC50 [1]	EC50 [2]	EC50 [3]	EC50 [4]	EC50 [5]
CC(=O)N[C@@H]1CCN(C(=O)c2cccc(Nc3cc(N(C)c4cccc(C)c4)ncn3)c2)C1 [drawing 378]	> 100 µM	> 100 µM	> 100 µM	> 100 µM	> 100 µM					
Cc1ccc(F)cc1S(=O)(=O)Nc1cccc(C(=O)OCC(=O)NC2CCCCC2)c1 [drawing 404]	> 100 µM	33 µM	> 100 µM	> 100 µM	> 100 µM					
Clc1ccc2nc(NCc3ccccn3)nc(-c3ccccc3)c2c1 [drawing 357]	16 µM	71 µM	> 100 µM	> 100 µM	> 100 µM					
O=C1c2ccccc2C(=O)N1C[C@H](O)Cn1nc(-c2cccs2)c2ccccc2c1=O [drawing 405]	> 100 µM	> 100 µM	> 100 µM	> 100 µM	> 100 µM					
CSc1sc(-c2n[nH]cc2Br)c2c1C(=O)CC(C)(C)C2 [drawing 396]						94 µM	18 µM	> 100 µM	> 100 µM	> 100 µM
O=C(c1ccccc1)n1nc(-c2ccco2)nc1NCc1ccccc1	> 100 µM	> 100 µM	> 100 µM	> 100 µM	> 100 µM					
Cc1cc(C)n(-c2cccc(C(=O)NC[C@H]3Cc4cc(Cl)cc(-c5cnccn5)c4O3)c2)n1	64 µM	94 µM	> 100 µM	96 µM	70 µM					
O=C(NCc1ccc(F)cc1)c1cccc(Nc2nccc(Nc3ccc4ncsc4c3)n2)c1 [drawing 423]	9 µM	11 µM	18 µM	24 µM	6 µM					
COc1ccc(Nc2nc(N(C)CCO)nc3c2cnn3-c2ccccc2)cc1 [drawing 387]	6 µM	11 µM	9 µM	8 µM	7 µM					
Cc1cccc(C(=O)n2nc(-c3ccco3)nc2NCc2ccccc2)c1 [drawing 431]	> 100 µM	> 100 µM	> 100 µM	> 100 µM	> 100 µM					
